Reference: PubChem BioAssay (NCI)
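96-well plates; 48 h exposure; 5 concentrations. Endpoints by linear interpolation between flanking doses. Not reached: highest tested concentration assigned. TGI is the concentration that stops growth completely.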

Experiments:
Test in all cases: NCI tumour cell line growth inhibition, 48 h
[1] = tested on: 786-0 renal
[2] = tested on: A498 renal
[3] = tested on: A549 NSCLC
[4] = tested on: ACHN renal
[5] = tested on: CAKI-1 renal
[6] = tested on: CCRF-CEM leukemia
[7] = tested on: DLD-1 colon
[8] = tested on: DMS 273 small cell lung
[9] = tested on: EKVX NSCLC
[10] = tested on: HCC-2998 colon
[11] = tested on: HCT-116 colon
[12] = tested on: HL-60(TB) leukemia
[13] = tested on: HOP-18 NSCLC
[14] = tested on: HOP-62 NSCLC
[15] = tested on: HT29 colon
[16] = tested on: IGROV1 ovarian
[17] = tested on: K-562 leukemia
[18] = tested on: KM12 colon
[19] = tested on: KM20L2 colon
[20] = tested on: LOX IMVI melanoma
[21] = tested on: LXFL 529 NSCLC
[22] = tested on: M14 melanoma
[23] = tested on: M19-MEL melanoma
[24] = tested on: MALME-3M melanoma
[25] = tested on: MOLT-4 leukemia
[26] = tested on: NCI-H226 lung
[27] = tested on: NCI-H23 lung
[28] = tested on: NCI-H460 lung
[29] = tested on: NCI-H522 lung
[30] = tested on: OVCAR-3 ovarian
[31] = tested on: OVCAR-4 ovarian
[32] = tested on: OVCAR-5 ovarian
[33] = tested on: OVCAR-8 ovarian
[34] = tested on: RXF 393 renal
[35] = tested on: RXF-631 renal
[36] = tested on: SF-268 CNS
[37] = tested on: SF-295 CNS
[38] = tested on: SF-539 CNS
[39] = tested on: SK-MEL-2 melanoma
[40] = tested on: SK-MEL-28 melanoma
[41] = tested on: SK-MEL-5 melanoma
[42] = tested on: SK-OV-3 ovarian
[43] = tested on: SN12C renal
[44] = tested on: SNB-19 CNS
[45] = tested on: SNB-75 CNS
[46] = tested on: SNB-78 CNS
[47] = tested on: SR leukemia
[48] = tested on: SW-620 colon
[49] = tested on: TK-10 renal
[50] = tested on: U251 CNS
[51] = tested on: UACC-257 melanoma
[52] = tested on: UACC-62 melanoma
[53] = tested on: UO-31 renal
[54] = tested on: XF 498 CNS
[55] = tested on: COLO 205 colon
[56] = tested on: DMS 114 small cell lung
[57] = tested on: HCT-15 colon
[58] = tested on: HOP-92 NSCLC
[59] = tested on: RPMI-8226 leukemia

Structure (SMILES): O=C(/C=C/c1ccccc1O)c1cccnc1
- TGI [1]: > 100 µM
- TGI [2]: > 100 µM
- TGI [3]: > 100 µM
- TGI [4]: > 100 µM
- TGI [5]: > 100 µM
- TGI [6]: > 100 µM
- TGI [7]: > 100 µM
- TGI [8]: > 100 µM
- TGI [9]: > 100 µM
- TGI [10]: > 100 µM
- TGI [11]: > 100 µM
- TGI [12]: > 100 µM
- TGI [13]: > 100 µM
- TGI [14]: > 100 µM
- TGI [15]: > 100 µM
- TGI [16]: > 100 µM
- TGI [17]: > 100 µM
- TGI [18]: > 100 µM
- TGI [19]: > 100 µM
- TGI [20]: > 100 µM
- TGI [21]: > 100 µM
- TGI [22]: > 100 µM
- TGI [23]: > 100 µM
- TGI [24]: > 100 µM
- TGI [25]: > 100 µM
- TGI [26]: > 100 µM
- TGI [27]: > 100 µM
- TGI [28]: > 100 µM
- TGI [29]: > 100 µM
- TGI [30]: > 100 µM
- TGI [31]: > 100 µM
- TGI [32]: > 100 µM
- TGI [33]: > 100 µM
- TGI [34]: > 100 µM
- TGI [35]: > 100 µM
- TGI [36]: > 100 µM
- TGI [37]: > 100 µM
- TGI [38]: > 100 µM
- TGI [39]: > 100 µM
- TGI [40]: > 100 µM
- TGI [41]: > 100 µM
- TGI [42]: > 100 µM
- TGI [43]: > 100 µM
- TGI [44]: > 100 µM
- TGI [45]: > 100 µM
- TGI [46]: > 100 µM
- TGI [47]: > 100 µM
- TGI [48]: > 100 µM
- TGI [49]: > 100 µM
- TGI [50]: > 100 µM
- TGI [51]: > 100 µM
- TGI [52]: > 100 µM
- TGI [53]: > 100 µM
- TGI [54]: > 100 µM

Structure (SMILES): CC1(Br)C(=O)NC(=O)N(C2CC(N=[N+]=[N-])C(CO)O2)C1N=[N+]=[N-] (centres undefined)
- TGI [1]: > 100 µM
- TGI [2]: > 100 µM
- TGI [3]: > 100 µM
- TGI [4]: > 100 µM
- TGI [5]: > 100 µM
- TGI [6]: > 100 µM
- TGI [55]: > 100 µM
- TGI [7]: > 100 µM
- TGI [56]: > 100 µM
- TGI [8]: > 100 µM
- TGI [9]: > 100 µM
- TGI [10]: > 100 µM
- TGI [57]: > 100 µM
- TGI [12]: > 100 µM
- TGI [14]: > 100 µM
- TGI [58]: > 100 µM
- TGI [15]: > 100 µM
- TGI [16]: > 100 µM
- TGI [17]: > 100 µM
- TGI [18]: > 100 µM
- TGI [19]: > 100 µM
- TGI [20]: > 100 µM
- TGI [21]: > 100 µM
- TGI [22]: > 100 µM
- TGI [23]: > 100 µM
- TGI [24]: > 100 µM
- TGI [25]: > 100 µM
- TGI [27]: > 100 µM
- TGI [28]: > 100 µM
- TGI [29]: 66.8 µM
- TGI [30]: > 100 µM
- TGI [31]: > 100 µM
- TGI [32]: > 100 µM
- TGI [33]: > 100 µM
- TGI [59]: > 100 µM
- TGI [34]: > 100 µM
- TGI [35]: > 100 µM
- TGI [36]: > 100 µM
- TGI [37]: > 100 µM
- TGI [38]: > 100 µM
- TGI [39]: > 100 µM
- TGI [40]: > 100 µM
- TGI [41]: > 100 µM
- TGI [42]: > 100 µM
- TGI [43]: > 100 µM
- TGI [44]: > 100 µM
- TGI [45]: > 100 µM
- TGI [46]: > 100 µM
- TGI [48]: > 100 µM
- TGI [49]: > 100 µM
- TGI [50]: > 100 µM
- TGI [51]: > 100 µM
- TGI [52]: > 100 µM
- TGI [53]: > 100 µM
- TGI [54]: > 100 µM
